Laboratory results published in patent US20160175380A1, “Compositions and Methods of Treatment of Corneal Endothelium Disorders” (The Schepens Eye Research Institute, Inc., priority 2010, published 2016).
Where two headings read alike, the source gives them in different places.

Columns and labels:
[1] = test system: FECD corneal endothelium attached to the Descemet membrane; assay: Endothelial cell apoptosis (TUNEL) in post-keratoplasty FECD specimens, +/- tBHP; type: cell-based, human
Protocol: Immunocytochemistry. […] After permeabilization, corneas were incubated with goat anti-8-OHdG (1:200; Millipore) followed by incubation with appropriate secondary antibodies. Nuclei were stained with TO-PRO-3 iodide (Molecular Probes). Corneal endothelial tight junctions were detected by rabbit anti-zonula occludens-1 (anti-ZO-1) antibody (1:300; Invitrogen).
An Nrf2-controlled pathway is affected during the endothelial cell loss from surgery and from dystrophic degeneration. […] Nrf2 is a transcription factor that causes a coordinated upregulation of multiple antioxidants, such as glutathione transferases, glutathione peroxidases, peroxiredoxins, thioredoxins, NADH(P)H hydrogenases, heme-oxygenases, glutamate- cysteine ligases. Sulforaphane (SF) and D3T upregulate Nrf2 on a protein level and enhance cellular antioxidant defense. Thus, studies were carried out to investigate the effect of SF on endothelial cell apoptosis with and without pro-oxidants. Post-keratoplasty FECD specimens, containing corneal endothelium attached to the Descemet membrane, were exposed to four experimental conditions: +/− tBHP with is a long acting pro-oxidant and +/−SF. The rate of endothelial cell apoptosis (as detected by TUNEL) in FECD endothelium was 31% and it decreased to 13% (p=1.5E-06) with SF treatment. Under pro-oxidant conditions, SF decreased endothelial cell apoptosis from 60% to 33% (p=0.016) (FIG. 11A). Similarly, D3T diminished endothelial cell apoptosis by decreasing the number of apoptotic cells from 52% to 30% (p<0.05) (FIG. 11B).

[2] = test system: mouse corneal endothelium; details: 1 μM
Protocol: (§1) Corneal Whole Mount Assays. Eight (8-) to 12-wk-old male BALB/c and C57BL/6 (from Taconic Farms, Germantown, NY and our own breeding facility) were used for corneal whole mount assays. All protocols were approved by the Schepens Eye Research Institute Animal Care and Use Committee, and all animals were treated according to the Association for Research in Vision and Ophthalmology Statement for the Use of Animals in Ophthalmic and Vision Research. […] Control corneal buttons were incubated in DMEM only at 37° C. for 0-12 hours. Immunocytochemistry. Immunocytochemistry was performed as previously described.17 Normal, FECD, and PBK corneas were incubated in culture medium containing 100 nM MitoTracker Red CMXRos (Molecular Probes) for 30 minutes at 37° C., then fixed with 3.7% formaldehyde. […] Millipore) followed by incubation with appropriate secondary antibodies. Nuclei were stained with TO-[…] iodide (Molecular Probes). […] Invitrogen). […] Bioscience), propidium iodide (1:200; Invitrogen), and TUNEL assay (In Situ Cell Death Detection Kit, Roche Diagnostics GmbH) according to the manufacturers' instructions. Digital images were obtained using a spectral photometric confocal microscope ([…][…] with LCS 1.3.1 software).

[3] = test system: mouse corneal endothelium; details: 30 minutes
Protocol: as §1, with “software). Analysis of CE Cell Morphology. […] (variation in cell size) and pleomorphism (variation in cell shape) were then calculated.” for “software).”

[4] = test system: Nrf2 mRNA expression in HCECi; details: H2O2 200 μM, 2 hours; normalized to B2M; non-treated control 1.00±0.05; P=0.004
Protocol: Human Corneal Endothelial Cell Culture. […] The culture medium of subconfluent cells was replaced with serum-free medium (OptiMEM-1; Invitrogen-Life Technologies) alone or supplemented with H2O2 (200 μM) and incubated for 2 hours at 37° C. At the end of the treatment, cell viability was evaluated by trypan blue staining. Real-time PCR. […] Reverse transcription was performed using a commercially available kit (Promega). […] Real-time PCR reactions were run on an ABI Prism 7500 HT Sequence Detection System (Applied Biosystems). For data analysis, the comparative Ct method was performed.

HCECi = details: H2O2 200 μM, 2 hours; P=0.001
Protocol: Human Corneal Endothelial Cell Culture. […] The culture medium of subconfluent cells was replaced with serum-free medium (OptiMEM-1; Invitrogen-Life Technologies) alone or supplemented with H2O2 (200 μM) and incubated for 2 hours at 37° C. At the end of the treatment, cell viability was evaluated by trypan blue staining.

**Q.** Which results are given for `S=c1ccss1` [D3T, 3H-1,2-dithiole-3-thione]?
**A.** number of apoptotic cells with D3T ([1]; FECD, absence of oxidative stress, 52% without D3T, p<0.05): 30%; effect on percentage of apoptotic cells in FECD ([1]; absence of oxidative stress): decreased the percentage of apoptotic cells

**Q.** With `OO` [H2O2, hydrogen peroxide] as the molecule, how does the “mitochondrial staining (MitoTracker CMXRos)” value (“mitochondrial staining” for short) ([2]; 1-hour treatment) read?
**A.** Its value is “decline in the mitochondrial density”.

**Q.** What about the “mitochondrial staining” value ([2]; 2-hour treatment, P<0.01) of the same molecule?
**A.** Its value is “no detectable mitochondrial staining”.

**Q.** What about the “CE cells with early apoptosis (annexin-V-positive, PI-negative)” value ([2]; 60 minutes, P<0.01) of the same molecule?
**A.** Its value is “Approximately 5%”.

**Q.** What about the “CE cells with early apoptosis (annexin-V-positive, PI-negative)” value ([2]; 90 minutes, P<0.01) of the same molecule?
**A.** The value was roughly 11%.

**Q.** What about the “mitochondrial staining” value ([2]; 90 minutes, P<0.01) of the same molecule?
**A.** The value was “significant decrease”.

**Q.** And the “late apoptosis (annexin-V-positive, PI-positive)” value ([2]; 120 minutes, P<0.01)?
**A.** The value was “identified”.

**Q.** What about the “CE cell density as measured by ZO-1 labeling” value ([3]; 0-100 μM) of the same molecule?
**A.** Its value is “no statistically significant effect”.

**Q.** And the “percent of hexagonal cells (pleomorphism)” value ([3]; 100 μM, P=0.007)?
**A.** Its value is “declined significantly”.

**Q.** What about the “relative expression of Nrf2 mRNA (mean±SEM)” value [4] of the same molecule?
**A.** The value was 0.66±0.02.

**Q.** And the “level of 8-OHdG relative to control cells” value (HCECi)?
**A.** The value was 2 fold.

**Q.** Which results are given for `C[S+]([O-])CCCCN=C=S` (stereo not shown) [SF, sulforaphane]?
**A.** rate of endothelial cell apoptosis (as detected by TUNEL) with SF treatment ([1]; FECD endothelium, without pro-oxidant (tBHP-), 31% without SF, p=1.5E-06): 13%; endothelial cell apoptosis with SF under pro-oxidant conditions ([1]; FECD specimens exposed to tBHP, 60% without SF, p=0.016): 33%; decrease of endothelial cell apoptosis in FECD ([1]; SF treatment, without pro-oxidant conditions [tBHP-], p=1.57E-06): 58%; decrease of endothelial cell apoptosis ([1]; specimens exposed to pro-oxidants or tBHP, p=0.016): ≤ 45%
